Laboratory results published in US20170239289A1, “TREATMENT OF INFLAMMATION, RESPIRATORY TRACT INFECTIONS AND CYSTIC FIBROSIS” (Advanced Inhalation Therapies (AIT) Ltd., priority 2014, published 2017).
Entries after “also recorded” stand apart in the source; their conditions may differ.

Assays:
[1] = test system: methicillin-sensitive S. aureus (MSSA); assay: Example 1: microbial density in sputum (CFU) during NO inhalation; type: in vivo, Staphylococcus aureus; conditions: Patient 3 (CFSCH03)
Protocol: (§1) NO was administered via inhalation to nine clinically stable human subjects diagnosed with, or suffering from CF from two medical centers. Patients received three daily 30-minute treatments of 160 ppm NO with at least 3.5 hours between treatments, for 5 days per week over a two-weeks time period.
(§2) Preliminary efficacy measures included determination of microbial density in sputum and measurements of forced exhaled volume at 1 second (FEV1). Inflammation associated with C-reactive protein (CRP) levels was assessed as a secondary outcome measure. Other inflammation biomarkers, such as interleukins, were also monitored (data not shown).
Bacterial load was measured for exemplary, non-limiting selection of species that included, P. alcaligenes, methicillin-sensitive Staphylococcus aureus (MSSA), Achromobacter spp., A. fumigates, non-mucoid P. aeruginosa and mucoid P. aeruginosa.

C-reactive protein (CRP) = assay: Example 1: CRP levels in CF subjects treated with 160 ppm NO; type: in vivo, human; conditions: three subjects with baseline CRP greater than 5 mg/L
Protocol: as §1, §2

[2] = test system: human subjects diagnosed with cystic fibrosis; assay: Example 4: CF study, 160 ppm NO 30 min 3x daily for 10 treatment days; safety; type: in vivo
Protocol: In addition to their standard care, subjects were administered three 30-minute inhalations per day of 160 ppm NO (with O2/air) for 10 working days (i.e., 5 days on treatment, 2 days off treatment, 5 days on treatment, for a total of 10 treatment days and 30 inhalations).
A minimum time interval of 3.5 hours from the end of one treatment to the beginning of the next treatment was required.
As a safety measure, during NO administration, human subjects' MetHb and 02 saturation levels in the blood were monitored utilizing a commercial “off the shelf” co-oxymeter (Masimo Corporation Model RAD-57/RAD 87).
In the event of MetHb greater than 5% or O2 saturation less than or equal to 88%, treatment was temporarily discontinued, and measure repeated 30 minutes later. If value(s) had returned to above the safety threshold, the next inhalation was started according to protocol. In any case of a second episode of MeHb greater than 5%, study treatment was to be permanently discontinued.
Primary Endpoints—Safety and Tolerability: • Safety • Determine the MetHb levels during treatment with inhaled NO • Determine other AEs associated with inhaled NO • Tolerability • Proportion of subjects (%) who prematurely discontinued the study or study treatment for any reason • Proportion of subjects (%) who prematurely discontinued the study treatment due to AEs or SAEs • Proportion of subjects (%) who prematurely discontinued the study treatment due to AEs or SAEs associated with inhaled NO
All measured variables and derived parameters were listed individually and tabulated by descriptive statistics. For categorical variables, summary tables were provided giving sample size, absolute and relative frequency. For continuous variables, summary tables were provided giving sample size, arithmetic mean, SD, median, minimum and maximum and 95% CI for means of variables. For the ITT cohort, the LOCF approach was applied, when deemed appropriate, to account for missing data at or prior to study termination. Methemoglobin was summarized in appropriate descriptive tables. The percent of subjects with MetHb level greater than 5% was calculated per time point. Changes from baseline in MetHb levels were analyzed using Signed rank test for two means. Laboratory results were summarized in appropriate tables by time. Changes from baseline were calculated and presented as well.

[N]=O [NO, nitric oxide]
MSSA CFU counts [1]: elimination
reduction in CRP levels after treatment (C-reactive protein (CRP)): 40-60%
AEs of MetHb elevation greater than 5% or NO2 elevation greater than 5 ppm ([2]; N=9): no AEs
AEs possibly or probably related to treatment, % of subjects ([2]; N=9): 22.2%
Adverse events reported by, % of subjects ([2]; N=9): 55.5%
Severe or serious AEs ([2]; N=9): no severe or serious AEs
maximum MetHb level ([2]; N=9): 4.6%
total AEs reported ([2]; N=9, 20 events in a single subject (SC-01)): 31
Subjects with MetHb greater than 5% ([2]; entire study treatment period, N=9): no subjects
cases of haemoptysis ([2]; in 2 subjects, all events mild): 7 cases
Cumulative effect on MetHb levels ([2]; over the study treatment period): no “cumulative” effect; also recorded: no cumulative effect
